The target in experiment [1] is GST-Bcl-2 (Homo sapiens, UniProt P10415). The experiment can be described thus: TR-FRET binding assay, GST-Bcl-2 with F-Bak peptide probe. The settings on record: TR-FRET Binding Affinity, GST-Bcl-2, F-Bak peptide probe. In short, it runs like this:
(§1)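 Ki was derived with Wang's equation for competitive binding of two ligands. The read-out was time-resolved fluorescence after a 3 h room-temperature incubation, using a Tb-labelled antibody donor and the F-Bak peptide acceptor (excitation 340/35 nm). Test compounds entered as DMSO serial dilutions starting at 50 μM, which was the 2× concentration.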
Background: Time-resolved FRET reads energy transfer from a long-lived donor to a nearby acceptor.

Experiment [2] concerns the target GST-Bcl-XL (Homo sapiens, UniProt Q07817). The experiment can be described thus: TR-FRET binding assay, GST-Bcl-XL with F-Bak peptide probe. To be noted: TR-FRET Binding Affinity, GST-Bcl-XL, F-Bak peptide probe. The procedure, abridged:
as §1

Experiment [3] deals with FL5.12/Bcl-2 cells. The experiment is described as follows: FL5.12/Bcl-2 cell viability assay under IL-3 withdrawal (CellTitre Glo). The format is cell-based, murine. To be noted: Mus musculus, IL-3 withdrawn 48 hrs, then 24 hrs with compound. From the text: FL5.12 is an IL-3 dependent prolymphocytic murine cell line that undergoes apoptosis upon IL-3 withdrawal as a result of the upregulation of pro-apoptotic Bcl-2 proteins such as Bim and Puma. Stable overexpression of anti-apoptotic Bcl-2 protein (FL5.12/Bcl-2) protects against apoptosis induced by IL-3 withdrawal by sequestration of Bim and Puma. […] The ability of compounds to kill FL5.12/Bcl-2 cells upon IL-3 withdrawal is a direct measure of the compounds' ability to inhibit anti-apoptotic Bcl-2 protein function.
Wild type FL5.12/Bcl-2 overexpressing stable transfectants were cultured in RPMI-1640 supplemented with 2 mM L-glutamine, 10% FBS, 1 mM sodium pyruvate, 2 mM HEPES, 1% penicillin/streptomycin (Invitrogen), 57 μM β-ME, and 10% WEHI-3B conditioned medium (source of IL-3) and maintained at 37° C. containing 5% CO2. 1×10^6 cells/ml were washed 1×PBS and resuspended in medium not supplemented with 10% WEHI-3B for 48 hrs prior to cytotoxicity assays. Cells were then treated for an additional 24 hrs in the presence of various concentrations of the indicated compounds. Cell viability was assessed by CellTitre Glo assay (Promega Corp.) according to the manufacturer's recommendations.

Bounds are passed on as bounds.

In general, Ki refers to the dissociation constant of the complex between target and ligand, obtained from inhibition or displacement. As a reminder, the EC50 is the concentration at which the effect is half-maximal.

Chain of GST-Bcl-2 (P10415 whole entry): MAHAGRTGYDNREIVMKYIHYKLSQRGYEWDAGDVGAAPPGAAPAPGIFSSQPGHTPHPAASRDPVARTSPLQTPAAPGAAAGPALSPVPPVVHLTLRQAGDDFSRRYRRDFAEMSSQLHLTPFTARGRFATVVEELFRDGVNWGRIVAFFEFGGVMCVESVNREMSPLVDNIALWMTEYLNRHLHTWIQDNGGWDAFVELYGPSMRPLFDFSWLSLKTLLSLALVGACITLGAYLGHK
Chain of GST-Bcl-XL (Q07817 whole entry): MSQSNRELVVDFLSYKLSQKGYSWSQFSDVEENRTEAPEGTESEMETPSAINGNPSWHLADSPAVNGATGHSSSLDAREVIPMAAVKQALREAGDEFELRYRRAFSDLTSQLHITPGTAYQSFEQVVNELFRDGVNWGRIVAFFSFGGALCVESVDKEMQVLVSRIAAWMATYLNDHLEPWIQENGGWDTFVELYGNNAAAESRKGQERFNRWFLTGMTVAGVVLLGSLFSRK

With `CC(c1ccccc1-c1ccc(Cl)cc1)N1CCN(c2ccc(C(=O)NS(=O)(=O)c3ccc(NCC4CCOCC4)c([N+](=O)[O-])c3)c(Oc3cccc4[nH]ccc34)c2)CC1` (centres unmarked) [Example 175, 4-{4-[1-(4′-chloro-1,1′-biphenyl-2-yl)ethyl]piperazin-1-yl}-2-(1H-indol-4-yloxy)-N-({3-nitro-4-[(tetrahydro-2H-pyran-4-ylmethyl)amino]phenyl}sulfonyl)benzamide], the Ki was 0.1 nM in experiment [1] and greater than 660 nM in experiment [2]. Further, in experiment [3], the EC50 was 6.2 nM.

`CC1(C)CCC(CN2CCN(c3ccc(C(=O)NS(=O)(=O)c4ccc(NCC5(N)CCOCC5)c([N+](=O)[O-])c4)c(Oc4cccc5[nH]ccc45)c3)CC2)=C(c2ccc(Cl)cc2)C1` [Example 176, N-[(4-{[(4-aminotetrahydro-2H-pyran-4-yl)methyl]amino}-3-nitrophenyl)sulfonyl]-4-(4-{[2-(4-chlorophenyl)-4,4-dimethylcyclohex-1-en-1-yl]methyl}piperazin-1-yl)-2-(1H-indol-4-yloxy)benzamide]: the Ki is 0.18 nM in experiment [1] and 32 nM in experiment [2]. Further, in experiment [3], the EC50 was 58.5 nM.

In the case of `CC1(C)CCC(CN2CCN(c3ccc(C(=O)NS(=O)(=O)c4ccc(NCC5CCOCC5)c([N+](=O)[O-])c4)c(Oc4ccc5[nH]ccc5c4)c3)CC2)=C(c2ccc(Cl)cc2)C1` [Example 177, 4-(4-{[2-(4-chlorophenyl)-4,4-dimethylcyclohex-1-en-1-yl]methyl}piperazin-1-yl)-2-(1H-indol-5-yloxy)-N-({3-nitro-4-[(tetrahydro-2H-pyran-4-ylmethyl)amino]phenyl}sulfonyl)benzamide], the Ki in experiment [1] is 0.165 nM; in experiment [2] it was 132 nM. In addition, the EC50 in experiment [3] came out at 19.7 nM.

On to `CC1(C)CC(c2ccc(Cl)cc2)=C(CN2CCN(c3ccc(C(=O)NS(=O)(=O)c4ccc(NCC5CCOCC5)c([N+](=O)[O-])c4)c(Oc4ccc5[nH]ccc5c4)c3)CC2)CO1` [Example 182, 4-(4-{[4-(4-chlorophenyl)-6,6-dimethyl-5,6-dihydro-2H-pyran-3-yl]methyl}piperazin-1-yl)-2-(1H-indol-5-yloxy)-N-({3-nitro-4-[(tetrahydro-2H-pyran-4-ylmethyl)amino]phenyl}sulfonyl)benzamide], for which the Ki in experiment [1] was 0.087 nM; in experiment [2], greater than 660 nM. Moreover, in experiment [3], the EC50 stood at 12.4 nM.

Regarding `CN1CCC(O)(CNc2ccc(S(=O)(=O)NC(=O)c3ccc(N4CCN(CC5=C(c6ccc(Cl)cc6)CC(C)(C)CC5)CC4)cc3Oc3ccc4[nH]ccc4c3)cc2[N+](=O)[O-])CC1` [Example 183, 4-(4-{[2-(4-chlorophenyl)-4,4-dimethylcyclohex-1-en-1-yl]methyl}piperazin-1-yl)-N-[(4-{[(4-hydroxy-1-methylpiperidin-4-yl)methyl]amino}-3-nitrophenyl)sulfonyl]-2-(1H-indol-5-yloxy)benzamide], the Ki in experiment [1] amounted to 0.039 nM; in experiment [2] it was 9.43 nM. The 50% effective concentration (EC50) in experiment [3] was 30.8 nM.

With `CN1CCC(Nc2ccc(S(=O)(=O)NC(=O)c3ccc(N4CCN(CC5=C(c6ccc(Cl)cc6)CC(C)(C)CC5)CC4)c(F)c3Oc3ccc4[nH]ccc4c3)cc2[N+](=O)[O-])CC1` [Example 184, 4-(4-{[2-(4-chlorophenyl)-4,4-dimethylcyclohex-1-en-1-yl]methyl}piperazin-1-yl)-3-fluoro-2-(1H-indol-5-yloxy)-N-({4-[(1-methylpiperidin-4-yl)amino]-3-nitrophenyl}sulfonyl)benzamide], the Ki was 0.281 nM in experiment [1] and greater than 660 nM in experiment [2]. The EC50 in experiment [3] turned out to be 27 nM.

`CC1(C)CCC(CN2CCN(c3ccc(C(=O)NS(=O)(=O)c4ccc(NC5CCN(C6CCOCC6)CC5)c([N+](=O)[O-])c4)c(Oc4ccc5[nH]ccc5c4)c3F)CC2)=C(c2ccc(Cl)cc2)C1` [Example 185, 4-(4-{[2-(4-chlorophenyl)-4,4-dimethylcyclohex-1-en-1-yl]methyl}piperazin-1-yl)-3-fluoro-2-(1H-indol-5-yloxy)-N-({3-nitro-4-[(1-tetrahydro-2H-pyran-4-ylpiperidin-4-yl)amino]phenyl}sulfonyl)benzamide]: the results for the Ki in experiment [1] and in experiment [2] were 0.228 nM and 82.6 nM, respectively. In addition, in experiment [3], the EC50 was 63.4 nM.

Take `CN1CCC(O)(CNc2ccc(S(=O)(=O)NC(=O)c3ccc(N4CCN(CC5=C(c6ccc(Cl)cc6)CC(C)(C)CC5)CC4)cc3Oc3cccc4[nH]ccc34)cc2[N+](=O)[O-])CC1` [Example 186, 4-(4-{[2-(4-chlorophenyl)-4,4-dimethylcyclohex-1-en-1-yl]methyl}piperazin-1-yl)-N-[(4-{[(4-hydroxy-1-methylpiperidin-4-yl)methyl]amino}-3-nitrophenyl)sulfonyl]-2-(1H-indol-4-yloxy)benzamide]: the Ki worked out at 0.01 nM in experiment [1] and 11.2 nM in experiment [2]. Moreover, the 50% effective concentration (EC50) in experiment [3] was determined as 20.4 nM.

`CC1(C)CCC(CN2CCN(c3ccc(C(=O)NS(=O)(=O)c4ccc(N[C@@H]5CCN(Cc6ccccc6)C[C@@H]5O)c([N+](=O)[O-])c4)c(Oc4ccc5[nH]ccc5c4)c3)CC2)=C(c2ccc(Cl)cc2)C1` [Example 187, N-[(4-{[(3S,4R)-1-benzyl-3-hydroxypiperidin-4-yl]amino}-3-nitrophenyl)sulfonyl]-4-(4-{[2-(4-chlorophenyl)-4,4-dimethylcyclohex-1-en-1-yl]methyl}piperazin-1-yl)-2-(1H-indol-5-yloxy)benzamide]: the Ki was 0.329 nM in experiment [1] and greater than 660 nM in experiment [2]. Moreover, the EC50 in experiment [3] was found to be 341 nM.

As for `CC1(C)CCC(CN2CCN(c3ccc(C(=O)NS(=O)(=O)c4ccc(NCC5(N)CCOCC5)c([N+](=O)[O-])c4)c(Oc4ccc5[nH]ccc5c4)c3)CC2)=C(c2ccc(Cl)cc2)C1` [Example 188, N-[(4-{[(4-aminotetrahydro-2H-pyran-4-yl)methyl]amino}-3-nitrophenyl)sulfonyl]-4-(4-{[2-(4-chlorophenyl)-4,4-dimethylcyclohex-1-en-1-yl]methyl}piperazin-1-yl)-2-(1H-indol-5-yloxy)benzamide], the Ki was 0.102 nM in experiment [1] and 115 nM in experiment [2]. The EC50 in experiment [3] was determined as 24.7 nM.

For the compound `COCCN1CCC(Nc2ccc(S(=O)(=O)NC(=O)c3ccc(N4CCN(CC5=C(c6ccc(Cl)cc6)CC(C)(C)CC5)CC4)cc3Oc3ccc4[nH]ccc4c3)cc2[N+](=O)[O-])CC1` [Example 189, 4-(4-{[2-(4-chlorophenyl)-4,4-dimethylcyclohex-1-en-1-yl]methyl}piperazin-1-yl)-2-(1H-indol-5-yloxy)-N-[(4-{[1-(2-methoxyethyl)piperidin-4-yl]amino}-3-nitrophenyl)sulfonyl]benzamide], the values for the Ki in experiment [1] and in experiment [2] were 0.144 nM and 51.7 nM, respectively. For the same compound, the concentration giving a half-maximal response (EC50) in experiment [3] stood at 14.9 nM.

For `CC1(C)CCC(CN2CCN(c3ccc(C(=O)NS(=O)(=O)c4ccc(OCC5COCCO5)c([N+](=O)[O-])c4)c(Oc4ccc5[nH]ccc5c4)c3)CC2)=C(c2ccc(Cl)cc2)C1` (centres unmarked) [Example 297, 4-(4-{[2-(4-chlorophenyl)-4,4-dimethylcyclohex-1-en-1-yl]methyl}piperazin-1-yl)-N-{[4-(1,4-dioxan-2-ylmethoxy)-3-nitrophenyl]sulfonyl}-2-(1H-indol-5-yloxy)benzamide], in experiment [2], the Ki is 283 nM. Besides, in experiment [3], the EC50 turned out to be 13.2 nM.

With `CC1(C)CCC(CN2CCN(c3ccc(C(=O)NS(=O)(=O)c4ccc(NCCOC(F)(F)F)c([N+](=O)[O-])c4)c(Oc4ccc5[nH]ccc5c4)c3)CC2)=C(c2ccc(Cl)cc2)C1` [Example 300, 4-(4-{[2-(4-chlorophenyl)-4,4-dimethylcyclohex-1-en-1-yl]methyl}piperazin-1-yl)-2-(1H-indol-5-yloxy)-N-[(3-nitro-4-{[2-(trifluoromethoxy)ethyl]amino}phenyl)sulfonyl]benzamide], the Ki in experiment [2] is greater than 660 nM. The EC50 in experiment [3] is 62.1 nM.

In the case of `CC1(C)CCC(CN2CCN(c3ccc(C(=O)NS(=O)(=O)c4ccc(NCC5CCOCC5)c(S(=O)(=O)C(F)(F)F)c4)c(Oc4ccc5[nH]ccc5c4)c3)CC2)=C(c2ccc(Cl)cc2)C1` [Example 304, 4-(4-{[2-(4-chlorophenyl)-4,4-dimethylcyclohex-1-en-1-yl]methyl}piperazin-1-yl)-2-(1H-indol-5-yloxy)-N-({4-[(tetrahydro-2H-pyran-4-ylmethyl)amino]-3-[(trifluoromethyl)sulfonyl]phenyl}sulfonyl)benzamide], in experiment [2], the Ki was greater than 660 nM. Also, in experiment [3], the EC50 stood at 415 nM.

In experiment [2], `COCCNc1ccc(S(=O)(=O)NC(=O)c2ccc(N3CCN(CC4=C(c5ccc(Cl)cc5)CC(C)(C)CC4)CC3)cc2Oc2ccc3[nH]ccc3c2)cc1S(=O)(=O)C(F)(F)F` [Example 315, 4-(4-{[2-(4-chlorophenyl)-4,4-dimethylcyclohex-1-en-1-yl]methyl}piperazin-1-yl)-2-(1H-indol-5-yloxy)-N-({4-[(2-methoxyethyl)amino]-3-[(trifluoromethyl)sulfonyl]phenyl}sulfonyl)benzamide] gave a Ki greater than 660 nM. Also, the EC50 in experiment [3] is greater than 500 nM.

The record behind these values is patent US9073855B2, “BCL-2 selective apoptosis-inducing agents for the treatment of cancer and immune diseases” (AbbVie Inc., priority 2008, dated 2015).
